Measured values as given in patent publication US9670227B2, “Thienopyrimidine derivatives, a process for their preparation and pharmaceutical compositions containing them” (LES LABORATOIRES SERVIER, priority 2013, dated 2017).
Read-outs that look alike come from different tables or passages of the source.

Assays:
[1] = system: H929 multiple myeloma tumour line; experiment: In vitro cytotoxicity, Microculture Tetrazolium Assay; type: cell-based; conditions: H929 cells, 48 hours exposure, MTT, read-out: IC50 (μM) MTT H929
Procedure: The cytotoxicity studies were carried out on the H929 multiple myeloma tumour line.
The cells are distributed onto microplates and exposed to the test compounds for 48 hours.

Mcl-1 protein = Mcl-1 protein (UniProtKB primary accession number: Q07820) (Homo sapiens, UniProt Q07820); experiment: Inhibition of Mcl-1 by fluorescence polarisation, Method 1; type: binding; conditions: fluorescence polarisation test; Method 2 values are underlined in the patent (underlining not visible here); read-out: IC50 (M) Mcl-1 FP
How it was run: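 Fluorescence polarisation competition with an 11-point compound dilution series (final DMSO 5%). Mcl-1 protein at 5 nM and fluorescein-labelled ligand at 1 nM (final) in 10 mM HEPES, 150 mM NaCl, 0.05% Tween 20, pH 7.4.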

Mcl-1 protein, sequence (Q07820 whole entry): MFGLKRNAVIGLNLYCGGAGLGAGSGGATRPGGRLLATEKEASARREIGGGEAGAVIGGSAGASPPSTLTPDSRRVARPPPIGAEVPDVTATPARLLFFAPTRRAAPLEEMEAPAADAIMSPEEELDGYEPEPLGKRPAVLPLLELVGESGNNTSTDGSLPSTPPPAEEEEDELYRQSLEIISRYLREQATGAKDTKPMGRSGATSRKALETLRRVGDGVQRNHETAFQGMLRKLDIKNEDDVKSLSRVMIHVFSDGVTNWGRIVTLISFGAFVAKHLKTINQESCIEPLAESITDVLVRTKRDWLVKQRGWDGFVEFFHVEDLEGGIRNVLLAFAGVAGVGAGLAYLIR

SMILES	IC50 (Mcl-1 protein) [M]	IC50 ([1]; Homo sapiens, NCI-H929, 48 h) [µM]	IC50 [1] [µM]
Cc1nccc(COc2ccccc2CC(Oc2ncnc3sc(-c4ccco4)c(-c4ccc(OCCN5CCN(C)CC5)c(Cl)c4C)c23)C(=O)O)n1 [Example 247, (2R)-2-{[(5Sa)-5-{3-chloro-2-methyl-4-[2-(4-methylpiperazin-1-yl)ethoxy]phenyl}-6-(furan-2-yl)thieno[2,3-d]pyrimidin-4-yl]oxy}-3-{2-[(2-methylpyrimidin-4-yl)methoxy]phenyl}propanoic acid]	8e-09	0.022	–
Cc1c(-c2c(-c3ccco3)sc3ncnc(OC(Cc4ccccc4OCc4ccnc(C(F)(F)F)n4)C(=O)O)c23)ccc(OCCN2CCN(C)CC2)c1Cl [Example 248, (2R)-2-{[(5Sa)-5-{3-chloro-2-methyl-4-[2-(4-methylpiperazin-1-yl)ethoxy]phenyl}-6-(furan-2-yl)thieno[2,3-d]pyrimidin-4-yl]oxy}-3-(2-{[2-(trifluoromethyl)pyrimidin-4-yl]methoxy}phenyl)propanoic acid]	6.9e-09	0.015	–
Cc1c(-c2c(-c3ccco3)sc3ncnc(OC(Cc4ccccc4OCc4ccnc(N(C)C)n4)C(=O)O)c23)ccc(OCCN2CCN(C)CC2)c1Cl [Example 251, (2R)-2-{[(5Sa)-5-{3-chloro-2-methyl-4-[2-(4-methylpiperazin-1-yl)ethoxy]phenyl}-6-(furan-2-yl)thieno[2,3-d]pyrimidin-4-yl]oxy}-3-(2-{[2-(dimethylamino)pyrimidin-4-yl]methoxy}phenyl)propanoic acid]	6.3e-09	0.035	–
COc1nccc(COc2ccccc2CC(Oc2ncnc3sc(-c4ccco4)c(-c4ccc(OCCN5CCN(C)CC5)c(Cl)c4C)c23)C(=O)O)n1 [Example 255, (2R)-2-{[(5Sa)-5-{3-chloro-2-methyl-4-[2-(4-methylpiperazin-1-yl)ethoxy]phenyl}-6-(furan-2-yl)thieno[2,3-d]pyrimidin-4-yl]oxy}-3-{2-[(2-methoxypyrimidin-4-yl)methoxy]phenyl}propanoic acid]	7.5e-09	0.018	–
Cc1c(-c2c(-c3ccco3)sc3ncnc(OC(Cc4ccccc4OCc4ccncc4)C(=O)O)c23)ccc(OCCN2CCN(C)CC2)c1Cl [Example 258, (2R)-2-{[(5Sa)-5-{3-chloro-2-methyl-4-[2-(4-methylpiperazin-1-yl)ethoxy]phenyl}-6-(furan-2-yl)thieno[2,3-d]pyrimidin-4-yl]oxy}-3-[2-(pyridin-4-ylmethoxy)phenyl]propanoic acid]	6.6e-09	0.069	–
Cc1c(-c2c(-c3ccco3)sc3ncnc(OC(Cc4ccccc4OCc4ccncn4)C(=O)O)c23)ccc(OCCN2CCN(C)CC2)c1Cl [Example 259, (2R)-2-{[(5Sa)-5-{3-chloro-2-methyl-4-[2-(4-methylpiperazin-1-yl)ethoxy]phenyl}-6-(furan-2-yl)thieno[2,3-d]pyrimidin-4-yl]oxy}-3-[2-(pyrimidin-4-ylmethoxy)phenyl]propanoic acid]	5.2e-09	0.07	–
Cc1c(-c2c(-c3ccco3)sc3ncnc(OC(Cc4ccccc4OCc4ccnn4C)C(=O)O)c23)ccc(OCCN2CCN(C)CC2)c1Cl [Example 260, (2R)-2-{[(5Sa)-5-{3-chloro-2-methyl-4-[2-(4-methylpiperazin-1-yl)ethoxy]phenyl}-6-(furan-2-yl)thieno[2,3-d]pyrimidin-4-yl]oxy}-3-{2-[(1-methyl-1H-pyrazol-5-yl)methoxy]phenyl}propanoic acid]	6.7e-09	0.033	–

Compounds with a lower IC50 (Mcl-1 protein), results first:

IC50 (Mcl-1 protein) [M]	SMILES	IC50 ([1]; Homo sapiens, NCI-H929, 48 h) [µM]	IC50 [1] [µM]
5e-09	Cc1c(-c2c(-c3ccco3)sc3ncnc(OC(Cc4ccccc4OCc4ccnc(OCc5ccccc5)n4)C(=O)O)c23)ccc(OCCN2CCN(C)CC2)c1Cl [Example 257, (2R)-3-(2-{[2-(benzyloxy)pyrimidin-4-yl]methoxy}phenyl)-2-{[(5Sa)-5-{3-chloro-2-methyl-4-[2-(4-methylpiperazin-1-yl)ethoxy]phenyl}-6-(furan-2-yl)thieno[2,3-d]pyrimidin-4-yl]oxy}propanoic acid]	0.019	–
4.2e-09	Cc1c(-c2c(-c3ccco3)sc3ncnc(OC(Cc4ccccc4OCc4ccnc(N5CCOCC5)n4)C(=O)O)c23)ccc(OCCN2CCN(C)CC2)c1Cl [Example 252, (2R)-2-{[(5Sa)-5-{3-chloro-2-methyl-4-[2-(4-methylpiperazin-1-yl)ethoxy]phenyl}-6-(furan-2-yl)thieno[2,3-d]pyrimidin-4-yl]oxy}-3-(2-{[2-(morpholin-4-yl)pyrimidin-4-yl]methoxy}phenyl)propanoic acid]	0.009	–
4e-09	Cc1c(-c2c(-c3ccco3)sc3ncnc(OC(Cc4ccccc4OCc4ccnc(Cl)n4)C(=O)O)c23)ccc(OCCN2CCN(C)CC2)c1Cl [Example 249, (2R)-2-{[(5Sa)-5-{3-chloro-2-methyl-4-[2-(4-methylpiperazin-1-yl)ethoxy]phenyl}-6-(furan-2-yl)thieno[2,3-d]pyrimidin-4-yl]oxy}-3-{2-[(2-chloropyrimidin-4-yl)methoxy]phenyl}propanoic acid]	0.023	–
3.9e-09	Cc1c(-c2c(-c3ccco3)sc3ncnc(OC(Cc4ccccc4OCc4ccnn4C4CCCC4)C(=O)O)c23)ccc(OCCN2CCN(C)CC2)c1Cl [Example 262, (2R)-2-{[(5Sa)-5-{3-chloro-2-methyl-4-[2-(4-methylpiperazin-1-yl)ethoxy]phenyl}-6-(furan-2-yl)thieno[2,3-d]pyrimidin-4-yl]oxy}-3-{2-[(1-cyclopentyl-1H-pyrazol-5-yl)methoxy]phenyl}propanoic acid]	0.023	–
3.6e-09	Cc1c(-c2c(-c3ccco3)sc3ncnc(O[C@H](Cc4ccccc4OCc4ccnc(N)n4)C(=O)O)c23)ccc(OCCN2CCN(C)CC2)c1Cl [Example 250, (2R)-3-{2-[(2-aminopyrimidin-4-yl)methoxy]phenyl}-2-{[(5Sa)-5-{3-chloro-2-methyl-4-[2-(4-methylpiperazin-1-yl)ethoxy]phenyl}-6-(furan-2-yl)thieno[2,3-d]pyrimidin-4-yl]oxy}propanoic acid]	–	0.499
3.3e-09	Cc1c(-c2c(-c3ccco3)sc3ncnc(OC(Cc4ccccc4OCc4ccnc(NCc5ccccc5)n4)C(=O)O)c23)ccc(OCCN2CCN(C)CC2)c1Cl [Example 254, (2R)-3-(2-{[2-(benzylamino)pyrimidin-4-yl]methoxy}phenyl)-2-{[(5Sa)-5-{3-chloro-2-methyl-4-[2-(4-methylpiperazin-1-yl)ethoxy]phenyl}-6-(furan-2-yl)thieno[2,3-d]pyrimidin-4-yl]oxy}propanoic acid]	0.044	–
3.1e-09	CNc1nccc(COc2ccccc2CC(Oc2ncnc3sc(-c4ccco4)c(-c4ccc(OCCN5CCN(C)CC5)c(Cl)c4C)c23)C(=O)O)n1 [Example 253, (2R)-2-{[(5Sa)-5-{3-chloro-2-methyl-4-[2-(4-methylpiperazin-1-yl)ethoxy]phenyl}-6-(furan-2-yl)thieno[2,3-d]pyrimidin-4-yl]oxy}-3-(2-{[2-(methylamino)pyrimidin-4-yl]methoxy}phenyl)propanoic acid]	0.041	–
1.7e-09	Cc1c(-c2c(-c3ccco3)sc3ncnc(OC(Cc4ccccc4OCc4ccnn4C(C)C)C(=O)O)c23)ccc(OCCN2CCN(C)CC2)c1Cl [Example 261, (2R)-2-{[(5Sa)-5-{3-chloro-2-methyl-4-[2-(4-methylpiperazin-1-yl)ethoxy]phenyl}-6-(furan-2-yl)thieno[2,3-d]pyrimidin-4-yl]oxy}-3-(2-{[1-(propan-2-yl)-1H-pyrazol-5-yl]methoxy}phenyl)propanoic acid]	0.018	–
